Measured values from PubChem BioAssay (NCI).
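Compound exposure: 48 hours, 5 concentrations, 96-well plates. GI50 = concentration required for 50% inhibition of growth. TGI marks complete inhibition of growth.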

Tests used:
Assay in all cases: growth of human tumour cells (NCI), 48 h
K-562 leukemia = test system: K-562 leukemia
TK-10 renal = test system: TK-10 renal
SK-OV-3 ovarian = test system: SK-OV-3 ovarian
HOP-62 NSCLC = test system: HOP-62 NSCLC
CCRF-CEM leukemia = test system: CCRF-CEM leukemia
A498 renal = test system: A498 renal
SF-539 CNS = test system: SF-539 CNS
SNB-75 CNS = test system: SNB-75 CNS
NCI-H226 lung = test system: NCI-H226 lung
SK-MEL-2 melanoma = test system: SK-MEL-2 melanoma

Work on O=C1CC[C@@H](S(=O)(=O)c2ccccc2)[C@@H](/C=C/c2ccccc2)O1 yielded a TGI (K-562 leukemia) greater than 100 µM, a TGI (TK-10 renal) greater than 100 µM and a TGI (SK-OV-3 ovarian) greater than 100 µM. It also gave a TGI (HOP-62 NSCLC) greater than 100 µM, a TGI (CCRF-CEM leukemia) greater than 100 µM and a TGI (A498 renal) greater than 100 µM. It also gave a TGI (SF-539 CNS) greater than 100 µM, a TGI (SNB-75 CNS) greater than 100 µM and a TGI (NCI-H226 lung) greater than 100 µM.

Compound CCc1cc(O)c(Cl)c(C)c1Cl has a TGI (TK-10 renal) of 35.9 µM, a TGI (SK-OV-3 ovarian) of 34.5 µM and a TGI (HOP-62 NSCLC) of 33.2 µM. For the same compound, the TGI (CCRF-CEM leukemia) was 50.1 µM, the TGI (SK-MEL-2 melanoma) was greater than 100 µM and the TGI (A498 renal) was 28.2 µM. For the same compound, the TGI (SF-539 CNS) was 34.8 µM and the TGI (SNB-75 CNS) was 34.1 µM.

Work on COC(=O)CNC(=O)[C@@H](OC)[C@@H]1Cc2cc3cc(OC4CC(OC5CC(O)C(O)C(C)O5)C(O)C(C)O4)c(C)c(O)c3c(O)c2C(=O)[C@H]1OC1CC(OC2CC(OC3CC(C)(O)C(O)C(C)O3)C(O)C(C)O2)C(O)C(C)O1 (stereo partly specified) yielded a GI50 (K-562 leukemia) of 0.192 µM, a TGI (K-562 leukemia) greater than 50 µM and a GI50 (TK-10 renal) of 0.402 µM. It also gave a TGI (TK-10 renal) greater than 50 µM, a GI50 (SK-OV-3 ovarian) of 0.444 µM and a TGI (SK-OV-3 ovarian) greater than 50 µM. It also gave a GI50 (HOP-62 NSCLC) of 0.0908 µM, a TGI (HOP-62 NSCLC) greater than 50 µM and a GI50 (CCRF-CEM leukemia) of 0.186 µM. For the same compound, the TGI (CCRF-CEM leukemia) was greater than 50 µM, the GI50 (SK-MEL-2 melanoma) was 0.147 µM and the TGI (SK-MEL-2 melanoma) was 0.712 µM. For the same compound, the GI50 (SF-539 CNS) was 0.141 µM, the TGI (SF-539 CNS) was 2.3 µM and the GI50 (SNB-75 CNS) was 0.127 µM. It also gave a TGI (SNB-75 CNS) of 0.9 µM, a GI50 (NCI-H226 lung) of 0.11 µM and a TGI (NCI-H226 lung) of 0.414 µM.

In the case of COc1c(N2CCN(CN3C(=O)C(=Nc4ccc(S(=O)(=O)Nc5ncccn5)cc4)c4ccccc43)C(C)C2)c(F)cc2c(=O)c(C(=O)O)cn(C3CC3)c12 (stereo unspecified), the GI50 (K-562 leukemia) was 11.9 µM, the TGI (K-562 leukemia) was greater than 50 µM and the GI50 (TK-10 renal) was 11.9 µM. The TGI (TK-10 renal) was 43.7 µM, the GI50 (CCRF-CEM leukemia) was 44.4 µM and the TGI (CCRF-CEM leukemia) was greater than 50 µM. The GI50 (SK-MEL-2 melanoma) was 20 µM, the TGI (SK-MEL-2 melanoma) was greater than 50 µM and the GI50 (A498 renal) was 0.833 µM. It also gave a TGI (A498 renal) of 14.2 µM, a GI50 (SF-539 CNS) greater than 50 µM and a TGI (SF-539 CNS) greater than 50 µM. The GI50 (SNB-75 CNS) was 7.71 µM, the TGI (SNB-75 CNS) was greater than 50 µM and the GI50 (NCI-H226 lung) was 32.1 µM. The TGI (NCI-H226 lung) was greater than 50 µM.

Compound CC(C)CC1=[N+]=C(NC#N)N=C(CCC(=O)Nc2ccccc2[N+](=O)[O-])C1 has a TGI (K-562 leukemia) greater than 100 µM, a TGI (TK-10 renal) greater than 100 µM and a TGI (SK-OV-3 ovarian) greater than 100 µM. It also gave a TGI (HOP-62 NSCLC) greater than 100 µM, a TGI (CCRF-CEM leukemia) greater than 100 µM and a TGI (A498 renal) greater than 100 µM. For the same compound, the TGI (SF-539 CNS) was greater than 100 µM, the TGI (SNB-75 CNS) was greater than 100 µM and the TGI (NCI-H226 lung) was greater than 100 µM.

Work on CSc1nc2c(nc(N)n2C2OCC(O)C(O)C2O)c(=O)n1C (stereo unspecified) yielded a TGI (K-562 leukemia) greater than 100 µM, a TGI (TK-10 renal) greater than 100 µM and a TGI (SK-OV-3 ovarian) greater than 100 µM. For the same compound, the TGI (HOP-62 NSCLC) was greater than 100 µM, the TGI (CCRF-CEM leukemia) was greater than 100 µM and the TGI (A498 renal) was greater than 100 µM. The TGI (SF-539 CNS) was greater than 100 µM, the TGI (SNB-75 CNS) was greater than 100 µM and the TGI (NCI-H226 lung) was greater than 100 µM.

Compound COc1cccc(C(=O)C2C(=O)N(C)CCc3ccccc32)c1OC (stereo unspecified) has a TGI (K-562 leukemia) greater than 100 µM, a TGI (TK-10 renal) greater than 100 µM and a TGI (SK-OV-3 ovarian) greater than 100 µM. The TGI (HOP-62 NSCLC) was greater than 100 µM, the TGI (CCRF-CEM leukemia) was greater than 100 µM and the TGI (SK-MEL-2 melanoma) was greater than 100 µM. The TGI (A498 renal) was greater than 100 µM, the TGI (SNB-75 CNS) was greater than 100 µM and the TGI (NCI-H226 lung) was greater than 100 µM.

In the case of COc1ccc2c3c(c(=O)n(C)c2c1OC)C=CC(C)(C)O3, the TGI (TK-10 renal) was greater than 100 µM, the TGI (SK-OV-3 ovarian) was greater than 100 µM and the TGI (HOP-62 NSCLC) was greater than 100 µM. For the same compound, the TGI (CCRF-CEM leukemia) was 88.3 µM, the TGI (SK-MEL-2 melanoma) was greater than 100 µM and the TGI (A498 renal) was 71.7 µM. It also gave a TGI (SF-539 CNS) greater than 100 µM, a TGI (SNB-75 CNS) of 48.2 µM and a TGI (NCI-H226 lung) of 80.9 µM.

Compound COc1cc(CNc2ccc(C(C)C)cc2)cc(OC)c1OC has a TGI (K-562 leukemia) of 41.7 µM, a TGI (TK-10 renal) greater than 100 µM and a TGI (SK-OV-3 ovarian) of 46.2 µM. For the same compound, the TGI (HOP-62 NSCLC) was 55.1 µM, the TGI (CCRF-CEM leukemia) was 50.5 µM and the TGI (SK-MEL-2 melanoma) was 32.9 µM. The TGI (A498 renal) was 67.7 µM, the TGI (SF-539 CNS) was 35.8 µM and the TGI (SNB-75 CNS) was 70.5 µM.
